Assay results as given in PubChem BioAssay (NCI).
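These data come from cells grown in 96-well plates and exposed to compound for 48 hours at five concentrations. TGI is the concentration that stops growth completely.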

Legend:
Test in all cases: NCI-60 cell line screen, 48 h
786-0 renal = test system: 786-0 renal
A498 renal = test system: A498 renal
A549 NSCLC = test system: A549 NSCLC
ACHN renal = test system: ACHN renal
CAKI-1 renal = test system: CAKI-1 renal
CCRF-CEM leukemia = test system: CCRF-CEM leukemia
COLO 205 colon = test system: COLO 205 colon
DU-145 prostate = test system: DU-145 prostate
EKVX NSCLC = test system: EKVX NSCLC
HCT-116 colon = test system: HCT-116 colon
HCT-15 colon = test system: HCT-15 colon
HL-60(TB) leukemia = test system: HL-60(TB) leukemia
HOP-92 NSCLC = test system: HOP-92 NSCLC
HS 578T breast = test system: HS 578T breast
HT29 colon = test system: HT29 colon
IGROV1 ovarian = test system: IGROV1 ovarian
KM12 colon = test system: KM12 colon
LOX IMVI melanoma = test system: LOX IMVI melanoma
M14 melanoma = test system: M14 melanoma
MCF7 breast = test system: MCF7 breast
MDA-MB-231 breast = test system: MDA-MB-231 breast
MDA-MB-435 = test system: MDA-MB-435
MDA-N = test system: MDA-N
MOLT-4 leukemia = test system: MOLT-4 leukemia
NCI-H226 lung = test system: NCI-H226 lung
NCI-H23 lung = test system: NCI-H23 lung
NCI-H460 lung = test system: NCI-H460 lung
NCI-H522 lung = test system: NCI-H522 lung
NCI/ADR-RES ovarian = test system: NCI/ADR-RES ovarian
OVCAR-3 ovarian = test system: OVCAR-3 ovarian
OVCAR-4 ovarian = test system: OVCAR-4 ovarian
OVCAR-5 ovarian = test system: OVCAR-5 ovarian
OVCAR-8 ovarian = test system: OVCAR-8 ovarian
PC-3 prostate = test system: PC-3 prostate
RXF 393 renal = test system: RXF 393 renal
SF-268 CNS = test system: SF-268 CNS
SF-295 CNS = test system: SF-295 CNS
SF-539 CNS = test system: SF-539 CNS
SK-MEL-2 melanoma = test system: SK-MEL-2 melanoma
SK-MEL-28 melanoma = test system: SK-MEL-28 melanoma
SK-MEL-5 melanoma = test system: SK-MEL-5 melanoma
SN12C renal = test system: SN12C renal
SNB-19 CNS = test system: SNB-19 CNS
SNB-75 CNS = test system: SNB-75 CNS
SR leukemia = test system: SR leukemia
SW-620 colon = test system: SW-620 colon
TK-10 renal = test system: TK-10 renal
U251 CNS = test system: U251 CNS
UACC-257 melanoma = test system: UACC-257 melanoma
UACC-62 melanoma = test system: UACC-62 melanoma
UO-31 renal = test system: UO-31 renal
HOP-62 NSCLC = test system: HOP-62 NSCLC
K-562 leukemia = test system: K-562 leukemia
RPMI-8226 leukemia = test system: RPMI-8226 leukemia
SK-OV-3 ovarian = test system: SK-OV-3 ovarian

Measured: TGI

CC#Cc1ccc(-c2ccccc2)s1
not listed: HOP-62 NSCLC | K-562 leukemia | RPMI-8226 leukemia | SK-OV-3 ovarian
> 100 µM: all other assays above

N#Cc1nc(-c2cnccn2)oc1N
not listed: COLO 205 colon | NCI-H226 lung | NCI-H23 lung | NCI-H460 lung | NCI-H522 lung | NCI/ADR-RES ovarian | OVCAR-3 ovarian | OVCAR-4 ovarian | SF-295 CNS | SF-539 CNS
> 100 µM: all other assays above
